This passage reports ILSmax results from ChEMBL document CHEMBL1122107, “Structure-antitumor activity relationships of 9-anilinoacridines using pattern recognition” (1982).

SMILES strings stand for the structures.

The assay has as its system L1210. Put plainly: Tumor cell selectivity determined as maximal percent increase in life span (ILSmax) at LD10 dosage level in L1210 cells. The format is functional, Mus musculus.
The compound `O=[N+]([O-])c1ccc(S(=O)(=O)Nc2ccc(Nc3c4ccccc4nc4cc([N+](=O)[O-])ccc34)cc2)cc1` showed an ILSmax of 200%.
Turning to `CS(=O)(=O)Nc1ccc(Nc2c3ccccc3nc3ccccc23)c(Cl)c1`, the ILSmax is given as 25%.
Under `CCOc1cccc2c(Nc3ccc(NS(C)(=O)=O)cc3)c3ccccc3nc12` stands 85%.
With `NC(=O)CCCCCCCCc1ccc(Nc2c3ccccc3nc3ccccc23)cc1`, the ILSmax was determined as 26%.
As for `CCS(=O)(=O)Nc1ccc(Nc2c3ccccc3nc3cc(NC(C)=O)ccc23)cc1`, the ILSmax was 115%.
The figure for `COc1ccccc1Nc1c2ccccc2nc2ccccc12` is 25%.
Regarding `COc1ccc2c(Nc3ccc(NS(C)(=O)=O)cc3)c3cccc(C)c3nc2c1`, the ILSmax is given as 75%.
For the compound `CCCC(=O)N(c1ccc(Nc2c3ccccc3nc3cc(NC(C)=O)ccc23)cc1)S(C)(=O)=O`, the ILSmax amounted to 95%.
Under `NCCCS(=O)(=O)c1ccc(Nc2c3ccccc3nc3cc([N+](=O)[O-])ccc23)cc1` stands 95%.
As for `NCCc1ccc(Nc2c3ccccc3nc3ccccc23)cc1`, the ILSmax came out at 25%.
With `Nc1ccc(C(=O)Nc2ccc(N=c3c4ccccc4[nH]c4ccc(N)cc34)cc2)cc1`, the ILSmax came out at 76%.
Under `COc1cc(/C=C/C(=O)O)ccc1Nc1c2ccccc2nc2ccccc12` stands 27%; under `CCCCS(=O)(=O)Nc1ccc(Nc2c3ccccc3nc3c(OC)cccc23)c(OC)c1`, 63%; under `O=C(O)CCc1ccc(NC(=O)Nc2ccc(N=c3c4ccccc4[nH]c4ccccc34)cc2)cc1`, 125%.
Consider `N=C(N)NCCCCS(=O)(=O)Nc1ccc(Nc2c3ccccc3nc3ccccc23)cc1`, for which the ILSmax was 25%.
Turning to `CS(=O)(=O)N1CCN(c2ccc(Nc3c4ccccc4nc4ccccc34)cc2)CC1`, the ILSmax was found to be 70%.
The compound `N=C(N)NCCCCS(=O)(=O)Nc1ccc(Nc2c3ccccc3nc3cc(Cl)ccc23)cc1` yielded an ILSmax of 25%.
Compound `CCS(=O)(=O)Nc1ccc(Nc2c3ccccc3nc3c(C(N)=O)cccc23)c(OC)c1` registered an ILSmax of 166%.
Regarding `Oc1cccc(Nc2c3ccccc3nc3ccccc23)c1`, the ILSmax was 25%.
For the compound `Nc1ccc(S(=O)(=O)Nc2ccc(Nc3c4ccccc4nc4ccccc34)cc2)cc1`, the ILSmax was 100%.
The figure for `COc1cccc(Nc2c3ccccc3nc3ccccc23)c1` is 25%; for `CNc1ccc2c(Nc3ccc(NS(C)(=O)=O)cc3)c3cccc(C)c3nc2c1` it is 170%.
As for `CC(Oc1ccc(Nc2c3ccccc3nc3ccccc23)cc1)C(=O)O` (stereo not given), the ILSmax is on record as 25%.
`CCCCNC(=O)c1cccc2c(Nc3ccc(NS(=O)(=O)CCC)cc3OC)c3ccccc3nc12`: the ILSmax came out at 71%.
Turning to `NC(=O)CCCCCc1ccc(Nc2c3ccccc3nc3ccccc23)cc1`, the ILSmax came out at 97%.
For `Nc1ccc(S(=O)(=O)Nc2ccc(Nc3c4ccccc4nc4cc(Cl)ccc34)cc2)cc1`, the ILSmax stood at 50%.
As to `CC(=O)Nc1ccc(S(=O)(=O)Nc2ccc(Nc3c4ccccc4nc4ccccc34)cc2)cc1`, the ILSmax turned out to be 151%.
`Cc1cccc2c(Nc3ccc(NS(C)(=O)=O)cc3)c3cc(N)c(Br)cc3nc12`: the ILSmax is recorded as 120%.
`Ic1ccccc1Nc1c2ccccc2nc2ccccc12` yielded an ILSmax of 25%.
`O=C(O)COc1ccc(Nc2c3ccccc3nc3ccccc23)cc1` registered an ILSmax of 25%.
`O=C(O)c1ccc(Nc2c3ccccc3nc3c(OCC(O)CO)cccc23)cc1` (stereo not given) displayed an ILSmax of 170%.
For the compound `CCCC(=O)N(c1ccc(Nc2c3ccccc3nc3c(C)cccc23)cc1)S(C)(=O)=O`, the ILSmax turned out to be 75%.
`COc1cc(NS(C)(=O)=O)ccc1N=c1c2ccccc2[nH]c2ccc(C(C)(C)C)cc12` yielded an ILSmax of 25%.
Take `Nc1ccc(Nc2c3ccccc3nc3cc([N+](=O)[O-])ccc23)cc1`: the ILSmax is listed as 30%.
Compound `CC(=O)c1ccc(N=c2c3ccccc3[nH]c3cc(N)ccc23)cc1` had an ILSmax of 52%.
Regarding `CS(=O)(=O)Nc1ccc(Nc2c3ccccc3nc3cc(Cl)c(N)cc23)cc1`, the ILSmax came to 140%.
`COc1cc(NS(C)(=O)=O)ccc1Nc1c2ccccc2nc2cccc([N+](=O)[O-])c12`: the ILSmax is recorded as 50%.
As for `COc1cc(NS(C)(=O)=O)ccc1Nc1c2ccccc2nc2c(C)c(C)ccc12`, the ILSmax stood at 118%.
`O=[N+]([O-])c1ccccc1Nc1c2ccccc2nc2ccccc12` had an ILSmax of 25%.
Under `COc1cc(NS(C)(=O)=O)ccc1Nc1c2ccccc2nc2c(C(=O)NCC(O)CO)cccc12` (stereo not given) stands 83%; under `CNS(=O)(=O)c1ccc(N=c2c3ccccc3[nH]c3cc(N)ccc23)cc1`, 55%.
`Cc1cccc2c(Nc3ccc(NS(=O)(=O)c4ccc(N)cc4)cc3)c3ccccc3nc12`: the ILSmax is 55%.
Compound `O=C(O)CCCCCc1ccc(Nc2c3ccccc3nc3ccccc23)cc1` showed an ILSmax of 200%.
Compound `CS(=O)(=O)Nc1ccc(Nc2c3ccccc3nc3c(N)cccc23)cc1` yielded an ILSmax of 100%.
As for `c1ccc(Nc2c3ccccc3nc3ccccc23)cc1`, the ILSmax turned out to be 25%.
As to `Nc1ccc2c(Nc3ccc(NC(=O)c4ccccc4)cc3)c3ccccc3nc2c1`, the ILSmax came out at 115%.
For the compound `COc1cc(NS(C)(=O)=O)ccc1Nc1c2ccc(I)cc2nc2c(OC)cccc12`, the ILSmax is recorded as 100%.
As for `CCc1ccc2c(Nc3ccc(NS(C)(=O)=O)cc3OC)c3ccccc3nc2c1`, the ILSmax worked out at 123%.
The figure for `O=C(O)CCc1cccc(Nc2c3ccccc3nc3ccccc23)c1` is 25%; for `COc1ccc(Nc2c3ccccc3nc3cc([N+](=O)[O-])ccc23)cc1` it is 30%.
The figure for `COc1cc(NS(C)(=O)=O)ccc1Nc1c2ccccc2nc2c(OC)cccc12` is 110%; for `Cc1ccc2c(Nc3ccc(NS(C)(=O)=O)cc3)c3ccc([N+](=O)[O-])cc3nc2c1` it is 170%; for `CC(C)CC(=O)Nc1ccc(Nc2c3ccccc3nc3ccccc23)cc1` it is 105%.
Take `CNc1ccc2c(Nc3ccc(OCCCC(=O)O)cc3)c3ccccc3nc2c1`: the ILSmax was determined as 25%.
Under `CS(=O)(=O)Nc1ccc(Nc2c3ccccc3nc3cc(O)ccc23)cc1` stands 72%; under `COc1cc(NS(C)(=O)=O)ccc1Nc1c2ccccc2nc2c1ccc1ncccc12`, 83%.
Under `CC(=O)Nc1ccc2c(Nc3ccc(NS(C)(=O)=O)cc3)c3ccccc3nc2c1` stands 60%; under `NCCCCc1ccc(NC(=O)Nc2ccc(N=c3c4ccccc4[nH]c4ccccc34)cc2)cc1`, 170%; under `CN(c1ccccc1Nc1c2ccccc2nc2ccccc12)S(C)(=O)=O`, 25%.
As to `CS(=O)(=O)Nc1ccc(N=c2c3ccccc3[nH]c3cc([N+](=O)[O-])ccc23)cn1`, the ILSmax is reported as 72%.
Under `COc1cc(NS(C)(=O)=O)ccc1Nc1c2ccccc2nc2cc(Cl)ccc12` stands 99%.
Under `CC(=O)N(C)c1ccc(Nc2c3ccccc3nc3ccccc23)cc1` stands 50%; under `CCCCCCS(=O)(=O)Nc1ccc(Nc2c3ccccc3nc3cc([N+](=O)[O-])ccc23)c(OC)c1`, 74%; under `NC(Cc1ccc(NC(=O)Nc2ccc(N=c3c4ccccc4[nH]c4cc([N+](=O)[O-])ccc34)cc2)cc1)C(=O)O` (stereo not given), 80%.
`CCCCCS(=O)(=O)Nc1ccc(Nc2c3ccccc3nc3ncccc23)c(OC)c1` returned an ILSmax of 76%.
The figure for `NCCc1ccc(Nc2c3ccccc3nc3cc([N+](=O)[O-])ccc23)cc1` is 25%.
Under `CCCCOc1cccc2c(Nc3ccc(NS(=O)(=O)CCC)cc3OC)c3ccccc3nc12` stands 80%; under `CCCS(=O)(=O)Nc1ccc(Nc2c3ccccc3nc3cc(NC(C)=O)ccc23)cc1`, 115%.
Take `CS(=O)(=O)Nc1ccc(Nc2c3ccccc3nc3cc([N+](=O)[O-])ccc23)cc1`: the ILSmax was 69%.
For `CCC(=O)N(c1ccc(Nc2c3ccc([N+](=O)[O-])cc3nc3c(C)cccc23)c(OC)c1)S(C)(=O)=O`, the ILSmax stood at 72%.
Compound `CS(=O)(=O)Nc1ccc(Nc2c3ccccc3nc3cc(I)ccc23)cc1` came in with an ILSmax of 160%.
`NCCCCCCc1ccc(N=c2c3ccccc3[nH]c3cc([N+](=O)[O-])ccc23)cc1` displayed an ILSmax of 25%.
Take `CS(=O)(=O)Nc1ccc(Nc2c3ccccc3nc3ccccc23)c(OCCO)c1`: the ILSmax turned out to be 67%.
As to `O=C(Cc1ccccc1)Nc1ccc(Nc2c3ccccc3nc3ccccc23)cc1`, the ILSmax is on record as 25%.
Turning to `Cc1ccc2nc3ccccc3c(Nc3ccc(NS(C)(=O)=O)cc3)c2c1`, the ILSmax stood at 25%.
`CCCCCS(=O)(=O)Nc1ccc(Nc2c3ccccc3nc3c(C(=O)NCCCC)cccc23)c(OC)c1`: the ILSmax is on record as 45%.
`O=C(O)c1ccc(Nc2c3ccccc3nc3ccccc23)cc1` yielded an ILSmax of 90%.
Turning to `CCCCNc1ccc(Nc2c3ccccc3nc3ccccc23)cc1`, the ILSmax is recorded as 25%.
The compound `CCCCCCNc1ccc(Nc2c3ccccc3nc3ccccc23)cc1` showed an ILSmax of 25%.
In the case of `CCCCCNS(=O)(=O)c1ccc(N=c2c3ccccc3[nH]c3cc(N)ccc23)cc1`, the ILSmax is listed as 50%.
